From PubChem BioAssay (NCI)
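A five-concentration, 48-hour dose response in 96-well plates underlies each endpoint, interpolated linearly between surrounding concentrations. The concentration for 50% growth inhibition is given as GI50. Definition used: TGI = concentration required for complete inhibition of growth.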

Columns and labels:
Experiment in all cases: NCI anticancer screen, dose series, 48 h
A549 NSCLC = test system: A549 NSCLC
HCT-15 colon = test system: HCT-15 colon
A498 renal = test system: A498 renal
HL-60(TB) leukemia = test system: HL-60(TB) leukemia
SK-OV-3 ovarian = test system: SK-OV-3 ovarian
KM12 colon = test system: KM12 colon
NCI-H226 lung = test system: NCI-H226 lung
MCF7 breast = test system: MCF7 breast
MDA-MB-435 = test system: MDA-MB-435
T-47D breast = test system: T-47D breast

Structure (SMILES)	TGI (A549 NSCLC)	TGI (HCT-15 colon)	TGI (A498 renal)	TGI (HL-60(TB) leukemia)	TGI (SK-OV-3 ovarian)	TGI (KM12 colon)	TGI (NCI-H226 lung)	GI50 (A549 NSCLC)	GI50 (HCT-15 colon)	GI50 (A498 renal)	GI50 (MCF7 breast)	TGI (MCF7 breast)	GI50 (HL-60(TB) leukemia)	GI50 (MDA-MB-435)	TGI (MDA-MB-435)	GI50 (SK-OV-3 ovarian)	GI50 (KM12 colon)	GI50 (NCI-H226 lung)	GI50 (T-47D breast)	TGI (T-47D breast)
O=c1c2ccccc2c(=O)n2n1CC=CC2	> 100 µM	> 100 µM	> 100 µM	> 100 µM	> 100 µM	> 100 µM	> 100 µM													
CC1CN(c2ccc(Cl)cc2)CC(C)OC(=O)O1 (stereo not given)	> 100 µM	> 100 µM		> 100 µM	> 100 µM	> 100 µM	> 100 µM													
COCC(O)Cn1ccnc1[N+](=O)[O-] (stereo not given)	> 100 µM	> 100 µM		> 100 µM	> 100 µM	> 100 µM	> 100 µM													
COC1=CC(c2ccc[nH]2)=N/C1=C\c1[nH]c(C)c(C(=O)CCCCC(=O)NC(C)(C)C)c1C	21.7 µM	2.06 µM	10.8 µM	4.06 µM	25.5 µM	2.38 µM	15 µM	3.34 µM	0.683 µM	2.93 µM	1.5 µM	2.92 µM	1.91 µM	1.75 µM	3.47 µM	9.31 µM	1.16 µM	2.97 µM		
OCC1C(/C=C/c2ccoc2)ON2CCCC12 (stereo not given)	> 100 µM			> 100 µM		> 100 µM	> 100 µM													
O=c1cc(-c2ccccc2F)[nH]c2ccc(N3CCCC3)cc12	> 100 µM		> 100 µM				0.0215 µM	< 0.001 µM	< 0.001 µM	7.32 µM	0.488 µM	> 100 µM	< 0.001 µM			< 0.001 µM	< 0.001 µM	< 0.001 µM	> 100 µM	> 100 µM
c1csc(-c2cn3nc(-c4c[nH]c5ccccc45)sc3n2)c1	> 100 µM	15.6 µM	23.6 µM	20.9 µM	82.7 µM	10.5 µM	> 100 µM	1.72 µM	0.488 µM	5.97 µM	1.17 µM	20.2 µM	0.76 µM	0.225 µM	0.685 µM	2.8 µM	0.498 µM	9.94 µM		
O=C1c2cccc(NCCN=Cc3cc([N+](=O)[O-])ccc3O)c2C(=O)c2c(NCCN=Cc3cc([N+](=O)[O-])ccc3O)cccc21	> 100 µM	> 100 µM	31.6 µM	> 100 µM	> 100 µM	> 100 µM	> 100 µM	3.89 µM	30.3 µM	3.73 µM			38.8 µM	4.28 µM	> 100 µM	18.9 µM	2.8 µM	3.34 µM	9.38 µM	> 100 µM
CC(=O)OC[C@]12CC[C@@H](C(=O)CBr)[C@@H]1[C@H]1CC[C@@H]3[C@@]4(C)CCCNC(C)(C)[C@@H]4CC[C@@]3(C)[C@]1(C)CC2	31.9 µM	3.52 µM	28.5 µM	4.95 µM	26.1 µM	27.3 µM		14.5 µM	1.65 µM	15 µM	2.27 µM	6.21 µM	2.11 µM	3.81 µM	13.8 µM	12.6 µM	11.8 µM		2.31 µM	6.92 µM
Cc1cc(NCCCCCCNc2cc(C)nc3cc(N(C)C)ccc23)c2ccc(N(C)C)cc2n1		> 100 µM	> 100 µM	8.52 µM	25 µM	> 100 µM														
O=C1C2C3C=C4c5ccccc5N(c5ccccc5)C4(C2C(=O)N1c1ccc(Cl)cc1)[C@H]1C(=O)N(c2ccc(Cl)cc2)C(=O)[C@@H]31 (stereo not given in full)	> 100 µM	> 100 µM	> 100 µM	> 100 µM	> 100 µM	> 100 µM	> 100 µM													
Cc1ccc([N+](=O)[O-])cc1NC(=O)/C(=N/NC(=S)NN)C1SC(=S)NC1=O (stereo not given)	> 100 µM	> 100 µM	> 100 µM	> 100 µM	> 100 µM	> 100 µM	> 100 µM													
CCN(CC)CCOc1ccc(CCc2cc(OC)c(OC)c(OC)c2)cc1	> 100 µM	> 100 µM	98.7 µM	44.4 µM		> 100 µM	> 100 µM													
O=c1[nH]nc2ccccc2c1Cc1ccccc1	> 100 µM	> 100 µM	> 100 µM		> 100 µM	> 100 µM	> 100 µM													
CCC(C)[C@H]1O[C@]2(C=C[C@@H]1C)C[C@@H]1C[C@@H](C/C=C(\C)[C@@H](OC3C[C@H](OC)C(O[C@H]4C[C@H](OC)[C@@H](O)[C@H](C)O4)[C@H](C)O3)[C@@H](C)/C=C/C=C3\CO[C@@H]4[C@H](O)C(C)=C[C@@H](C(=O)O1)[C@]34O)O2 (stereo not given in full)	7.04 µM	6.79 µM	1.14 µM	2.59 µM	8.23 µM	5.96 µM	3.27 µM	1.22 µM	1.72 µM	0.5 µM	1.85 µM	5.72 µM	1.16 µM			2.17 µM	1.67 µM	1.08 µM	1.09 µM	3.58 µM
O=C(CC(=O)C1=CNc2ccccc2S1)C(=O)Nc1ccc(Cl)cc1	> 50 µM	> 50 µM	> 50 µM	49.6 µM	> 50 µM	> 50 µM	> 50 µM													
Cc1oc2c(C)c3oc(=O)cc(C)c3cc2c1CN1C(=O)C2OCCOCCOCCOCCOCCO[C@H]2C1=O (stereo not given in full)	> 100 µM	> 100 µM	> 100 µM	> 100 µM	> 100 µM	> 100 µM	> 100 µM													
COc1ccc(/C=C/C(=O)c2ccc(O)c(CN3CCN(c4cc5c(cc4F)c(=O)c(C(=O)O)cn5C4CC4)CC3)c2)cc1	> 100 µM	> 100 µM	5.54 µM		43.2 µM	> 100 µM	> 100 µM	3.69 µM	2.22 µM	1.34 µM	0.456 µM	> 100 µM		2.17 µM	> 100 µM	2.56 µM	1.27 µM	3.75 µM	1.83 µM	> 100 µM
